Experimental data reported in patent US20050118263A1, “Composition” (priority 2002, published 2005).
Blank lines part the entries; values can stand above or below the compound they belong to.

Experiments:
healthy, unmedicated men = assay: Randomised, double-blind, crossover trial in healthy men: cognitive tests at end of each phase (Example 2); format: in vivo, human; settings: 4 weeks per phase, carbenoxolone 100 mg 8 hourly + amiloride 10 mg daily by mouth vs placebo + amiloride, p<0.01
Procedure: 10 healthy, unmedicated men (65.5 plus/minus SD 5.5y) participated in a randomised, double-blind, crossover trial comparing carbenoxolone (100 mg 8 hourly for 4 weeks by mouth) plus amiloride (10 mg daily by mouth) with placebo (8 hourly for 4 weeks by mouth) plus amiloride (10 mg daily by mouth). Each study phase lasts 4 weeks. The two phases are separated by an 8 week washout period. The order of carbenoxolone or placebo is randomised and the subjects and the experimenters are blind to the treatment given. Participants are asked to look out for potential adverse effects of carbenoxolone, including weight gain and pedal edema, and blood pressure and plasma electrolytes are monitored weekly. Compliance is assessed by pill counting and detecting carbenoxolone in plasma by high performance liquid chromatography. At the end of each phase, tests of verbal fluency, verbal memory, visuospatial memory, attention and processing speed, and intelligence are performed. Data are mean+/−SEM for the % change in cognitive score, calculated for each individual as (score with carbenoxolone+amiloride)−(score with placebo+amiloride)/(score with placebo+amiloride)×100. P values refer to comparison of absolute data in the two groups. Statistical analysis is conducted using Mann-Witney U tests and Friedman's non-parametric ANOVAs.

[1] = test system: patients with type 2 diabetes; assay: Randomised double-blind placebo controlled crossover trial in type 2 diabetes patients: cognitive tests at end of each phase (Example 3); format: in vivo, human; settings: 6 weeks per phase
Procedure: 12 patients with type 2 diabetes by World Health Organisation criteria (age range 52-70 y, mean 60.1 y), including 3 women and 9 men, participated in a randomised double-blind placebo controlled crossover trial comparing carbenoxolone (100 mg 8 hourly for 6 weeks by mouth) plus amiloride (10 mg daily by mouth) with placebo (8 hourly for 6 weeks by mouth) plus amiloride (10 mg daily by mouth). The two phases are separated by a washout period of 8 weeks. The order of carbenoxolone or placebo is randomised and the subjects and the experimenters are blind to the treatment given. At the end of each phase, tests of verbal fluency, verbal memory, visuospatial memory, attention and processing speed and intelligence are performed.

[2] = known from Yau et al. (1999) Neurosci Lett 277: 45-48; cited from earlier work
[3] = test system: patients with type 2 diabetes; assay: Withdrawals from treatment in patients with type 2 diabetes; format: in vivo, human; settings: carbenoxolone alone: of 8 patients, including one hospital admission with hypokalaemia

SMILES: NC(N)=NC(=O)c1nc(Cl)c(N)nc1N [Placebo with Amiloride, 3,5-diamino-6-chloro-N-(diaminomethylene) pyrazinecarboxamide]
verbal fluency (Controlled Word Association test), mean/SD (healthy, unmedicated men): 41/12
Processing speed: DSST, Mean (SD) ([1]; Digit Symbol Substitution test, p 0.78): 50.3 (6.7)
Reasoning: RSPM, Mean (SD) ([1]; Ravens Standard Progressive Matrices, p 0.17): 44.0 (6.6)
Verbal memory: Rey AVLT, Mean (SD) ([1]; Rey Auditory Verbal Learning Test, p <0.01): 56.1 (8.7)
Verbal memory: WM Logical Memory, Mean (SD) ([1]; Wechsler Memory Scale-revised, p 0.78): 49.7 (13.8)
Visual memory: WM Visual reproduction, Mean (SD) ([1]; Wechsler Memory Scale-revised, p 0.94): 59.9 (13.3)
Executive function: Verbal Fluency, Mean (SD) ([1]; p 0.48 between phases): 42.2 (8.4)

SMILES: CC(=O)S[C@@H]1CC2=CC(=O)CC[C@]2(C)[C@H]2CC[C@@]3(C)[C@@H](CC[C@@]34CCC(=O)O4)[C@H]12 [Spironolactone, 17-hydroxy-7-alpha-mercapto-3-oxo-17-alpha-pregn-4-ene-21-carboxylic acid gamma-lactone acetate]
unwanted effects on cognitive function [2]: reduce cognitive function

withdrawals due to sodium retention [3]: 3
SMILES: CC1(C)[C@@H](OC(=O)CCC(=O)O)CC[C@]2(C)[C@H]3C(=O)C=C4[C@@H]5C[C@@](C)(C(=O)O)CC[C@]5(C)CC[C@@]4(C)[C@]3(C)CC[C@@H]12 [carbenoxolone]
